Assay results from patent US20250381179A1, “CHROMAN-BASED COMPOUNDS FOR TREATING CANCER” (priority 2024, published 2025).

Columns and labels:
[1] = target: human cytochrome P450 CYP3A4 (Homo sapiens, UniProt P08684); test: In vitro metabolism by CYP3A4; type: in vitro ADME
Sequence of human cytochrome P450 CYP3A4 (P08684 whole entry): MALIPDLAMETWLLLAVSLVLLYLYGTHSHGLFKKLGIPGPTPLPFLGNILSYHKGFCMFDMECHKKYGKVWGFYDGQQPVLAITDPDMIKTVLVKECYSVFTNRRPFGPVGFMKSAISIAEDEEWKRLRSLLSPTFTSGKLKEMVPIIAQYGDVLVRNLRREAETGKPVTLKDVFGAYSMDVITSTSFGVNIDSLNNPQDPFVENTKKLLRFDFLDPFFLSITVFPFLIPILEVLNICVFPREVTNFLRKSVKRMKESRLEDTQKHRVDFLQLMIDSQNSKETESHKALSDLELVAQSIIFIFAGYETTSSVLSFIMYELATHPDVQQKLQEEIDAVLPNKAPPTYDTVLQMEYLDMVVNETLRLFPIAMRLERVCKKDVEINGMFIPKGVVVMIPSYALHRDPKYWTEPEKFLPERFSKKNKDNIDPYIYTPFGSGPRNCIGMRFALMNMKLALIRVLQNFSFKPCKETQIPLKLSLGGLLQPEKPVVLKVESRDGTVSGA

O=C1CC[C@H](N2Cc3cc(N4CCN(CC5CCN(c6ccc([C@@H]7c8ccc(O)cc8OC[C@@H]7c7ccccc7)cc6F)CC5)CC4)ccc3C2=O)C(=O)N1 [compound (1-g), (S)-3-(5-(4-((1-(2-fluoro-4-((3S,4R)-7-hydroxy-3-phenylchroman-4-yl)phenyl)piperidin-4-yl)methyl)piperazin-1-yl)-1-oxoisoindolin-2-yl)piperidine-2,6-dione]
metabolism by CYP3A4 [1]: weakly metabolized
highest non-severely-toxic dose (HNSTD) (both, dog, in vivo, po, 28 day): 45 mg/kg/day
off-target adverse toxicities (dog, in vivo): no off-target adverse toxicities observed
key organ effects (dogs, 28-day GLP): considered on target pharmacological effects
